According to patent US20110165652A1, “COMPOSITIONS, METHODS AND SYSTEMS FOR SINGLE MOLECULE SEQUENCING” (LIFE TECHNOLOGIES CORPORATION, priority 2008, published 2011):
Entries after “also recorded” stand apart in the source; their conditions may differ.

Experiments:
Type in all cases: biochemical
[1] = Initial tests of reaction rate of alpha-phosphate modified dGTP; conditions: data not shown
[2] = Exonuclease activity of Phi29 variants; conditions: printed in column Ensemble Extension Activity or in text
γ-dGTP = assay: 7-base homopolymeric extension reactions (FIG. 19B, 19C); conditions: for extension under limiting conditions: 30 second to 1 minute extension time
From the text: When the aspartic acid at position 456 is mutated, the activity is reduced but still detectable. FIG. […]
Three residues that have been implicated in catalysis of nucleotide incorporation by phi29 DNA polymerase are D458, D456, and V250 (Berman, Kamtekar et al., 2007). […] In one embodiment, D456 is mutated to glutamic acid, thus distorting the active site, but still allowing catalysis due to the presence of the functional group. The backbone of V250 additionally appears to play a role in catalysis; in some embodiments, the chemistry step will be slowed by mutating the V250 residue to an isoleucine or alanine in order to slow the chemistry step.

[3] = test system: template specifying incorporation of a single γ-labeled nucleotide; assay: Real time on-surface single molecule detection of γ-labeled nucleotide incorporation; conditions: for Activity on Detection System: more signals: number of signals relative to parent enzyme; for Activity on Detection System: Signals detected (timing of appearance) / Activity on Detection System: high ASB signals / Activity on Detection System: long duration signals: relative to parent enzyme
Description: Real time “On surface” experiments were performed to characterize the activity of the Phi29 variants on an exemplary single molecule sequencing system (FIGS. 72A and B). Chambered slides were prepared to facilitate injection and multiple experiments data collection from several chambers using a single slide. The template specified incorporation of a single γ-labeled nucleotide. The samples were excited using a 488 nm Argon ion laser at 2.5 mW and the data were collected at 25 ms integration time. Each stream of data was collected for 1500 frames, consecutive streams were collected for ˜5 minutes by moving to new fields of views (FOVs). FRETAN software was used to obtain the donor and acceptor traces.
After trace analysis, the selected signals (with acceptor signal over background greater than 4, i.e., ASN≧4) were characterized by examining attributes including duration, ASN and timing of signal appearance (i.e., start of signals). The variants that are of special interest include Variants 2 and 3.

[4] = test system: 5′ fluorescein-labeled primer:template duplex; assay: Ensemble primer extension with gamma-labeled dNTP by Phi29 mutant protein; conditions: for Ensemble Extension Activity: γ-nucleotide incorporation: relative to parent Phi29 exo(−) D12A/D66A, 0.5 μM or 5 μM gamma-labeled dNTP, 10 seconds to 5 minutes; for extension (FIG. 70C, 70D): ensemble PAGE analyses
From the text: Table 1, below, summarizes the ability of each mutant Phi29 polymerase to incorporate gamma-labeled nucleotides (as indicated in the column entitled “Ensemble Extension Activity”), fidelity of replication (as indicated in the column entitled “Fidelity”) and for activity in a single-molecule detected system, as depicted in FIGS. 20-59′ and 69-76 and associated description (see below), and indicated in the last column, entitled “Activity on Detection System.” Each and every mutation introduced into a given Phi29 mutant protein is listed in the column entitled “Mutations”; mutations are designated by the original amino acid/its position/its replacement, e.g., V250A means that valine at position 250 was replaced by alanine by site specific mutagenesis. If two or more amino acid substitutions are made, then each is designated as above and separated by a “/”. The predicted effect of a given mutation on polymerase activity, based on structure-function analysis of Phi29 polymerase, is provided in the column entitled “Expected Effect.” The various Phi29 mutants generated via selective mutagenesis, along with any applicable results of extension studies, fidelity assays and single molecule detection studies using each mutant protein, are collectively summarized in Table 1, below. To perform the extension studies, 330 nM Phi29 mutant protein and 100 nM 5′ fluorescein-labeled primer:template duplex were co-incubated in a solution comprising 50 mM Tris (pH 7.0), 2 mM MnCl2, 2 mM DTT, 0.1% Triton-X-100, 0.01% Tween-20. The reactions were initiated by addition of 0.5 μM or 5 μM of gamma-labeled dNTP, and quenched via addition of 30 mM EDTA at timepoints ranging from 10 seconds to 5 minutes. The reaction products were then separated on a 20% denaturing acrylamide gel and imaged on a Bio-Rad Molecular Imager FX. The intensity of each reaction product was quantified using Bio-Rad Quantity One software. FIGS. 20-59′ depict the results of extension studies conducted using specific Phi29 mutants.

[5] = test system: 5′ fluorescein-labeled primer:template duplex; assay: Replication fidelity: primer extension with incorrect (non-complementary) gamma-labeled nucleotide; conditions: incorrect gamma-labeled nucleotide in lieu of the complementary one
Description: To assay the replication fidelity of each mutant Phi29 polymerase protein, primer extensions were carried out in the same manner, except that an incorrect (i.e., non-complementary) gamma-labeled nucleotide was added to the extension mixture in lieu of the complementary nucleotide, and the amount of extended product following extension in presence of the incorrect nucleotide was analyzed.

dG2Oy650 = assay: Inc50: nucleotide concentration at which half of the primer is extended one base in sixty seconds; conditions: dG2Oy650 in duplicate
From the text: In one exemplary embodiment, an alanine was substituted for the valine at position 250. As is seen in FIG. 70C (Variant 5) the rate of extension by this mutant polymerase is decreased relative to wild type. […] To compensate for the reduced extension we combined V250A with several mutations that increase binding efficiency of γ-modified nucleotides. […] As is seen in FIG. 70C, Variant 2, the extension of the V250A mutant is improved through introduction of the E375Y mutation. The mutation V250A was also combined with the mutations E375A/Q380A as well as E375C.

[6] = test system: template specifying incorporation of a single γ-labeled nucleotide followed by a base-labeled nucleotide; assay: On-surface single molecule detection, single γ-labeled nucleotide followed by a base-labeled nucleotide; conditions: for frequency of γ-signals detected: single γ and base-labeled nucleotide incorporation
Description: Similar experiments were performed using a template specifying incorporation of a single γ-labeled nucleotide followed by a base-labeled nucleotide and data were analyzed as described above.
Example sets of signals detected using Phi29 variants over time are shown (FIGS. 72-75). […] Next, considering the appearance of BL-signals, the signals for the parent enzyme (#1) are nicely distributed and follow a Gaussian distribution (peak in the 121-180 second bin), whereas Variant 2's BL-signals appear between 0-120 seconds—again indicating an earlier appearance of signals when Variant 2 is compared with the parent enzyme.

BP(=O)(OCC1OC(n2cnc3c(=O)[nH]c(N)nc32)CC1O)OP(=O)(O)OP(=O)(O)O (stereo not drawn) [[alpha]-P-borano-dGTP]
reduction of reaction rate as compared to the natural counterpart [1]: 1.32 fold

Nc1nc2c(ncn2[C@H]2C[C@H](O)[C@@H](COP(O)(=S)OP(=O)(O)OP(=O)(O)O)O2)c(=O)[nH]1 (stereo partly drawn) [[alpha]-P-thiol-dGTP]
reduction of reaction rate as compared to the natural counterpart [1]: 1.61 fold

D12A/D66A/D169A: Phi29 polymerase exo minus variant
exonuclease activity [2]: exo deficient

D169A: Phi29 polymerase variant generated by total DNA synthesis [Variant D169A]
exonuclease activity [2]: exo deficient

D456E: Phi29 exo(−) (D12A/D66A) polymerase mutant [Variant D456E]
extension under limiting conditions (γ-dGTP; 1 μM γ-dGTP): significant impact
Activity on Detection System: more signals [3]: Fewer signals.
Ensemble Extension Activity: first base extension ([4]; γ-nucleotides): Increased first

D456N: Phi29 exo(−) (D12A/D66A) polymerase mutant [Variant D456N]
extension under limiting conditions (γ-dGTP; 1 μM γ-dGTP): significant impact
extension under limiting conditions (γ-dGTP; 1 μM γ-dGTP, listed as D456 to an asparagine): significantly reduced extension
extension under permissive conditions (γ-dGTP; 5 minutes with 5 μM nucleotides): somewhat reduced extension
Activity on Detection System: more signals [3]: Fewer signals.
Ensemble Extension Activity: γ-nucleotide incorporation [4]: Impaired

E375A: Phi29 exo(−) (D12A/D66A) polymerase mutant [Variant E375A]
Fidelity (mis-incorporation) [5]: No mis-
Activity on Detection System: more signals [3]: 3x more signals.
extension (FIG. 70C, 70D) ([4]; γ-nucleotides): increased extension
Ensemble Extension Activity: γ-nucleotide incorporation [4]: More efficient
Inc50 (dG2Oy650): reduced

N62D: mutant based on wild type Φ29 DNA polymerase [Variant N62D]
exonuclease activity [2]: Still has exo

Parent Enzyme Phi29exo(−) D12A/D66A: Phi29 polymerase with mutations D12A and D66A, SEQ. ID: 3, reduced exonuclease activity
Fidelity (mis-incorporation) [5]: No mis-
appearance of BL-signals after injection (window; peak bin for parent) [6]: 121 to 180 s
frequency of γ-signals detected [6]: few signals are detected
Activity on Detection System: more signals [3]: Benchmark
Ensemble Extension Activity: γ-nucleotide incorporation [4]: Benchmark
exonuclease activity ([2]; listed as D12A/D66A): exo deficient
exonuclease activity ([2]; listed as Phi29 exo(−)): reduced exonuclease activity

Phi29: Phi29 polymerase benchmark of the Inc50 comparison in Table 1; probably the exo(−) parent [reference compound]
Inc50 (dG2Oy650): (Phi29 = 0.14)

Q380A: Phi29 exo(−) (D12A/D66A) polymerase mutant [Variant Q380A]
Fidelity (mis-incorporation) [5]: No mis-
Activity on Detection System: more signals [3]: 2.5x more signals.
Ensemble Extension Activity: γ-nucleotide incorporation [4]: More efficient

T15I: mutant based on wild type Φ29 DNA polymerase [Variant T15I]
exonuclease activity [2]: Still has exo

V250A/E375A/Q380A: Phi29 exo(−) (D12A/D66A) polymerase mutant
Fidelity (mis-incorporation) [5]: appears to remain intact; also recorded: No mis-
Activity on Detection System: more signals [3]: 3x more signals.
Activity on Detection System: Signals detected (timing of appearance) [3]: earlier.
Activity on Detection System: high ASB signals [3]: More high ASB signals.
Activity on Detection System: long duration signals [3]: More long duration
Ensemble Extension Activity: γ-nucleotide incorporation [4]: Decreased rate

V250A/E375C: Phi29 exo(−) (D12A/D66A) polymerase mutant
Fidelity (mis-incorporation) [5]: appears to remain intact; also recorded: No mis-
Activity on Detection System: more signals [3]: 3.5x more signals.
Activity on Detection System: Signals detected (timing of appearance) [3]: earlier.
Activity on Detection System: long duration signals [3]: More long duration
Ensemble Extension Activity: γ-nucleotide incorporation [4]: Decreased rate

V250A/E375Y: Phi29 exo(−) (D12A/D66A) polymerase mutant
Fidelity (mis-incorporation) [5]: appears to remain intact; also recorded: No mis-
appearance of BL-signals after injection (window; peak bin for parent) [6]: 0 to 120 s
time after injection in which most of the γ-signals are detected [6]: ≤ 60 s
frequency of γ-signals detected [6]: higher frequency
Activity on Detection System: more signals [3]: 3x more signals.
Activity on Detection System: high ASB signals [3]: More high ASB signals.
Activity on Detection System: long duration signals [3]: More long duration
ASN of signals (population of molecules) ([3]; signals with ASN≧4): higher ASN
duration of signals (population of molecules) ([3]; signals with ASN≧4): longer duration
frequency of events detected ([3]; signals with ASN≧4): higher frequency of events detected
extension (FIG. 70C, 70D) ([4]; γ-nucleotides, listed as 2): slowed in incorporation
extension (FIG. 70C, 70D) ([4]; γ-nucleotides, listed as Variant 2): improved
Ensemble Extension Activity: γ-nucleotide incorporation [4]: Decreased rate

V250A: Phi29 exo(−) (D12A/D66A) polymerase mutant [Variant V250A]
extension within a minute (γ-dGTP; 1 μM γ-dGTP): at least 5 bases
extension under limiting conditions (γ-dGTP; 1 μM γ-dGTP): visibly slowing down extension
Activity on Detection System: more signals [3]: Fewer signals.
extension (FIG. 70C, 70D) ([4]; γ-nucleotides): decreased
Ensemble Extension Activity: γ-nucleotide incorporation [4]: Decreased rate
Inc50 (dG2Oy650): remains relatively unaffected
